The source of these data is patent US8431593B2, “Heteroaryl amide derivatives” (H. Lundbeck A/S, priority 2006, dated 2013).

The target of one assay is T1, P2X7 receptor (Homo sapiens, UniProt Q99572).
T1 construct: host or cells: SH-SY5Y
T1 sequence (Q99572 1-595): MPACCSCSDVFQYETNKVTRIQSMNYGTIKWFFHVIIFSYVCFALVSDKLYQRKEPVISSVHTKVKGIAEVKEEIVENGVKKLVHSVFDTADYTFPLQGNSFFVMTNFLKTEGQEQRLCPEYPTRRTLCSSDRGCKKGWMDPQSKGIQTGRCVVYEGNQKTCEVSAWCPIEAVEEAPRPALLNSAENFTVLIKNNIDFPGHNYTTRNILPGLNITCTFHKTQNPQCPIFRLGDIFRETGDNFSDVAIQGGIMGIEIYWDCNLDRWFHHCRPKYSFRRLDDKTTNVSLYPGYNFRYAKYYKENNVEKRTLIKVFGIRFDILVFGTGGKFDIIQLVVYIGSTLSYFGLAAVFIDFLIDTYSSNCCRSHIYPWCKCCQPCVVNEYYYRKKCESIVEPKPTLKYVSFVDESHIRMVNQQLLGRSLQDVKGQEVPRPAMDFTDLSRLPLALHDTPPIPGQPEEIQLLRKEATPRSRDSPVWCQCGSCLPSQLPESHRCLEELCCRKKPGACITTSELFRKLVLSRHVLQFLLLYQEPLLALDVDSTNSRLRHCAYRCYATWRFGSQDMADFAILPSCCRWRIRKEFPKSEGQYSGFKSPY
In words: P2X7 calcium mobilization assay, high throughput, antagonist activity (Example 4A).
Conditions: not given
The assay is classed as cell-based. An outline of the steps: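 Antagonism was measured as calcium mobilization on FLIPR^TETRA after a 1 h room-temperature compound preincubation of dye-loaded cells. Baseline from no-agonist wells was subtracted from each well's maximum RFU.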
Turning to `O=C(NCC12CC3CC(CC(C3)C1)C2)c1cccc2nc(CN3CCN(CCO)CC3)cn12` [Compound 13, N-(adamantan-1-ylmethyl)-2-{[4-(2-hydroxyethyl)piperazin-1-yl]methyl}imi-dazo[1,2-a]pyridine-5-carboxamide], the IC50 is below 2000 nM.

Still in this assay, the particulars now being: 50% decrease in the fluorescence response of cells exposed to 80 μM 2′(3′)-O-(4-benzoyl-benzoyl)adenosine 5′-triphosphate; Example 4A; read-out: IC50.
Regarding `CCOC(=O)C(C)(C)c1cn2c(C(=O)NCC34CC5CC(CC(C5)C3)C4)cccc2n1` [Compound 450, ethyl 2-{5-[(adamantan-1-ylmethyl)carbamoyl]imidazo[1,2-a]pyridin-2-yl}-2-methylpropanoate], the IC50 was below 2000 nM. For the molecule `CC1CNCCN1C(=O)Cc1cn2c(C(=O)NC[C@@H]3CC[C@@H]4C[C@H]3C4(C)C)cccc2n1` (stereo partly drawn) [Compound 556, N-{[(1R,2R,5R)-6,6-dimethylbicyclo[3.1.1]hept-2-yl]methyl}-2-[2-(2-methylpiperazin-1-yl)-2-oxoethyl]imidazo[1,2-a]pyridine-5-carboxamide], the IC50 is below 2000 nM.

The assay is the same for the next values; noted with them: 50% decrease in the fluorescence response of cells exposed to 80 μM of 2′(3′)-O-(4-benzoyl-benzoyl)adenosine 5′-triphosphate; Example 4A; read-out: IC50.
`O=C(O)c1cn2c(C(=O)NCC34CC5CC(CC(C5)C3)C4)cccc2n1` [Compound 686, 5-[(adamantan-1-ylmethyl)carbamoyl] imidazo[1,2-a] pyridine-2-carboxylic acid]: the IC50 is below 2000 nM. Still for that read-out and setting: the figure for `Cc1ccc(C(CNC(=O)c2cccc3nc(CN4CC[C@@H](NC(=O)OC(C)(C)C)C4)cn23)CC(C)C)cc1` (stereo partly drawn) [Compound 765, tert-butyl {1-[(5-{[4-methyl-2-(4-methylphenyl)pentyl]carbamoyl}imidazo [1,2-a]pyridin-2-yl)methyl]pyrrolidin-3-yl}carbamate] is below 2000 nM; for `O=C(NCC12CC3CC(CC(C3)C1)C2)c1cccc2nc(Cn3nnc(-c4ccccn4)n3)cn12` [Compound 816, N-(adamantan-1-ylmethyl)-2-[(5-pyridin-2-yl-2H-tetrazol-2-yl)methyl]imidazo [1,2-a]pyridine-5-carboxamide] it is below 2000 nM. Still for that read-out and setting: the figure for `CC(C)(C)OC(=O)N[C@@H]1CCN(Cc2cn3c(C(=O)NCC(CC4CCCCC4)c4ccccc4)cccc3n2)C1` (stereo partly drawn) [Compound 785, tert-butyl [1-({5-[(3-cyclohexyl-2-phenylpropyl)carbamoyl]imidazo[1,2-a]pyridin-2-yl}methyl)pyrrolidin-3-yl]carbamate] is below 2000 nM.

As for `CC(CN(C)C)NC(=O)c1cn2c(C(=O)NCC34CC5CC(CC(C5)C3)C4)cccc2n1` (stereo not drawn) [Compound 653, 5-N-(adamantan-1-ylmethyl)-2-N-[2-(dimethylamino)-l-methylethyl] imidazo[1,2-a]pyridine-2,5-dicarboxamide], the IC50 is below 2000 nM. As to `O=C(NCC12CC3CC(CC(C3)C1)C2)c1cccc2nc(C(=O)N3CCN([C@@H]4CCC[C@H]4O)CC3)cn12` [Compound 700, N-(adamantan-1-ylmethyl)-2-({4-[(1R,2R)-2-hydroxycyclopentyl]piperazin-1-yl}carbonyl)imidazo[1,2-a]pyridine-5-carboxamide], the half-inhibitory concentration (IC50) was below 2000 nM. Same read-out and setting: the figure for `CN1CCCC(CNC(=O)c2cn3c(C(=O)NCC45CC6CC(CC(C6)C4)C5)cccc3n2)C1` (stereo not drawn) [Compound 668, 5-N-(adamantan-1-ylmethyl)-2-N-[(1-methylpiperidin-3-yl)methyl]imidazo[1,2-a]pyridine-2,5-dicarboxamide] is below 2000 nM; for `N[C@H]1CCN(C(=O)c2cn3c(C(=O)NCC45CC6CC(CC(C6)C4)C5)cccc3n2)C1` [Compound 629, N-(adamantan-1-ylmethyl)-2-{[(3S)-3-aminopyrrolidin-1-yl]carbonyl}imidazo[1,2-a]pyridine-5-carboxamide] it is below 2000 nM.

Still in this assay, the particulars now being: 50% decrease in the fluorescence response of cells exposed to 80 μM of 2′(3′)-O-(4-benzoyl-benzoyl)adenosine 5′-triphosphate; determined as in Example 4A; read-out: IC50.
Consider `O=C(Cc1cn2c(C(=O)NCC3(c4ccc(Cl)cc4)CCCCC3)cccc2n1)NC1CCCC1` [Compound 866, N-{[1-(4-chlorophenyl)cyclohexyl]methyl}-2-[2-(cyclopentylamino)-2-oxoethyl]imidazo [1,2-a]pyridine-5-carboxamide], for which the IC50 was below 2000 nM.

For the molecule `O=C(NCC1(c2ccc(Cl)cc2)CCCCC1)c1cccc2nc(CC(Cc3ccccc3)C(=O)O)cn12` (stereo not drawn) [Compound 1013, 2-benzyl-3-[5-({[1-(4-chlorophenyl)cyclohexyl]methyl}carbamoyl)imidazo[1,2-a]pyridin-2-yl] propanoic acid], the IC50 is below 2000 nM. In the case of `O=C(Cc1cn2c(C(=O)NCC3(c4cccnc4)CCCCC3)cccc2n1)NC1CCCC1` [Compound 865, 2-[2-(cyclopentylamino)-2-oxoethyl]-N-[(1-pyridin-3-ylcyclohexyl)methyl] imidazo[1,2-a] pyridine-5-carboxamide], the IC50 is below 2000 nM.

The assay is the same for the next values; noted with them: P2X7 calcium mobilization, Example 4A; 50% decrease in the fluorescence response of cells exposed to 80 μM of (2′(3′)-O-(4-benzoyl-benzoyl)adenosine 5′-triphosephate); read-out: IC50.
On to `CCOC(=O)c1cn2cc(C(=O)NCC34CC5CC(CC(C5)C3)C4)ccc2n1` [Compound 1061, ethyl 6-[(adamantan-1-ylmethyl)carbamoyl] imidazo [1,2-a]pyridine-2-carboxylate], for which the IC50 was below 2000 nM. The same measure, in the same setting: for `CC(C)CC(CNC(=O)c1cccc2nc(CN3CCOCC3)cn12)c1ccc(C(F)(F)F)nc1` (stereo not drawn) [Compound 1053, N-{4-methyl-2-[6-(trifluoromethyl)pyridin-3-yl]pentyl}-2-(morpholin-4-ylmethyl) imidazo[1,2-a]pyridine-5-carboxamide] the value was below 2000 nM.

The same assay, now with this note: SH-SY5Y cells; 50% decrease in fluorescence response to 80 μM BzATP; read-out: IC50.
In the case of `O=C(NCC12CC3CC(CC(C3)C1)C2)c1cccc2nc(CC(=O)N3CCCC(O)C3)cn12` (stereo not drawn) [Compound 53, N-(adamantan-1-ylmethyl)-2-[2-(3-hydroxypiperidin-1-yl)-2-oxoethyl]imidazo[1,2-a]pyridine-5-carboxamide], the IC50 is below 2000 nM. Same read-out and setting: the figure for `NC1CCN(Cc2cn3c(C(=O)NCC45CC6CC(CC(C6)C4)C5)cccc3n2)CC1` [Compound 120, N-(adamantan-1-ylmethyl)-2-[(4-aminopiperidin-1-yl)methyl]imidazo[1,2-a]pyridine-5-carboxamide] is below 2000 nM; for `O=C(NCC12CC3CC(CC(C3)C1)C2)c1cccc2nc(CN3CCC(O)C3)cn12` (stereo not drawn) [Compound 134, N-(adamantan-1-ylmethyl)-2-[(3-hydroxypyrrolidin-1-yl)methyl]imidazo[1,2-a]pyridine-5-carboxamide] it is below 2000 nM; for `O=C(NCC12CC3CC(CC(C3)C1)C2)c1cccc2nc(COC3CCNC3)cn12` (stereo not drawn) [Compound 190, N-(adamantan-1-ylmethyl)-2-[(pyrrolidin-3-yloxy)methyl]imidazo[1,2-a]pyridine-5-carboxamide] it is below 2000 nM. The same measure, in the same setting: the figure for `CCOC(=O)c1cn2c(C(=O)NCC34CC5CC(CC(C5)C3)C4)c(Cl)ccc2n1` [Compound 7, 5-[(adamantan-1-ylmethyl)-carbamoyl]-6-chloro-imidazo[1,2-a]pyridine-2-carboxylic acid ethyl ester] is below 2000 nM.

Staying with this assay, now noted: fluorescence response of cells exposed to 80 μM 2′(3′)-O-(4-benzoyl-benzoyl)adenosine 5′-triphosphate; Example 4A; read-out: IC50.
On to `CCCCN(CC)C(=O)c1cn2c(NC(=O)CC34CC5CC(CC(C5)C3)C4)cccc2n1` [Compound 373, 5-[(adamantan-1-ylacetyl)amino]-N-butyl-N-ethylimidazo[1,2-a]pyridine-2-carboxamide], for which the IC50 is below 2000 nM. Turning to `CC1(C)[C@H]2CC[C@@H](CNC(=O)c3cccc4nc(C(=O)N5C6CCC5CC(N)C6)cn34)[C@@H]1C2` (stereo partly drawn) [Compound 335, 2-[(3-amino-8-azabicyclo[3.2.1]oct-8-yl)carbonyl]-N-{[(1S,2R,5S)-6,6-dimethylbicyclo[3.1.1]hept-2-yl]methyl}imidazo[1,2-a]pyridine-5-carboxamide], the IC50 was below 2000 nM. The same measure, in the same setting: for `O=C(O)c1ccn(Cc2cn3c(C(=O)NCC45CC6CC(CC(C6)C4)C5)cccc3n2)c(=O)c1` [Compound 355, 1-({5-[(adamantan-1-ylmethyl)carbamoyl]imidazo[1,2-a]pyridin-2-yl}methyl)-2-oxo-1,2-dihydropyridine-4-carboxylic acid] the value was below 2000 nM; for `Cc1cc(C(=O)O)nn1Cc1cn2c(C(=O)NCC34CC5CC(CC(C5)C3)C4)cccc2n1` [Compound 276, 1-({5-[(adamantan-1-ylmethyl)carbamoyl]imidazo[1,2-a]pyridin-2-yl}methyl)-5-methyl-1H-pyrazole-3-carboxylic acid], below 2000 nM; for `O=C(NCC12CC3CC(CC(C3)C1)C2)c1cccc2nc(CN3CC[C@H](F)C3)cn12` [Compound 282, N-(adamantan-1-ylmethyl)-2-[(3-fluoropyrrolidin-1-yl)methyl]imidazo[1,2-a]pyridine-5-carboxamide], below 2000 nM.

`CC(C)C(=O)NC1CCN(C(=O)c2cn3c(NC(=O)CC45CC6CC(CC(C6)C4)C5)cccc3n2)CC1` [Compound 402, N-[1-({5-[(adamantan-1-ylacetyl)amino]imidazo[1,2-a]pyridin-2-yl}carbonyl)piperidin-4-yl]-2-methylpropanamide]: the IC50 was below 2000 nM.

The term IC50 denotes the concentration that inhibits the measured activity by half.
